# Literature values, collected in patent US20020194154A1, “Systems, methods and computer program products for integrating biological/chemical databases using aliases” (priority 2001, published 2002).
# Conditions: side effect; text mining of HSDB
smiles,measurement,value
CC(C)(C)NCC(O)c1cc(Cl)c(N)c(Cl)c1 (centres unmarked) [clenbuterol],cardiac arrhythmia,can in some cases cause cardiac arrhythmia
same,heart rate,increases heart rate
